Experimental data: patent EP0808626A1, “Use of acetyl-L-carnitine for the treatment of presenile Alzheimer's disease” (Sigma-Tau Industrie Farmaceutiche Riunite S.p.A., priority 1996, dated 1997)

Experiments:
early-onset AD patients = assay: Double-blind, randomized, placebo-controlled trials with cognitive and functional clinical rating scales; assay type: in vivo; conditions: "efficacy" population
Description: For the purposes of assessing the clinical efficacy of acetyl L-carnitine in early-onset AD patients. 8 different parallel-group, double-blind, randomized, placebo-controlled trials in which acetyl L-carnitine was administered chronically by mouth to subjects suffering from early-onset (before age 65) or late-onset (after age 65) Alzheimer's disease were pooled and assessed as a whole.
Acetyl L-carnitine or placebo were administered at doses ranging from 2 to 3 g/day in the different studies. All patients recruited into these trials had diagnoses of probable Alzheimer's disease according to the criteria laid down by the DSM-III-R and the NINCDS-ADRDA; for recruitment patients had to have a Hachinski Ischemic Score of 4 points or less and no CT or NMR findings indicative of cerebral lesions other than those typical of Alzheimer's disease.
A total of 834 patients were recruited into the 8 trials considered. Of these, 140 (16.8%) were suffering from early-onset AD (before 65 years of age according to the DSM-IV definition). The criterion adopted to identity these patients as early-onset was their actual age at the time of recruitment into the study.
In the 8 trials considered, the progression of Alzheimer's disease was assessed on the basis of cognitive clinical rating scales (cognitive section of the Alzheimer's Disease Assessment Scale [ADAS-Cog]; MMSE - Mini Mental State Examination; BIMC - Blessed Information Memory Concentration) and functional or global clinical scales (CDR - Clinical Dementia Rating Scale; BDS - Blessed Dementia Scale; CGI-S and -C - Clinical Global Impression of Severity and Change) according to the scientific criteria indicated and approved by the various international regulatory authorities.

[1] = stated to justify doses larger than 1 to 4 g/day; cited from earlier work
[2] = study ST-901, Functional, oral 3 g/day, 12 months
[3] = study ST-88102, Cognitive, oral 2-3 g/day, 44 weeks
[4] = study ST-88102, Functional, oral 2-3 g/day, 44 weeks
[5] = the 5 studies of 6 months, Functional, oral

CC(=O)O[C@H](CC(=O)[O-])C[N+](C)(C)C [Acetyl L-carnitine, acetyl L-carnitine]
BIMC, mean change in final value at 6-12 months compared to baseline (early-onset AD patients; study DRN2-006, Cognitive, oral 2 g/day, 12 months): -3.5
BDS, mean change in final value at 6-12 months compared to baseline (early-onset AD patients; study DRN2-006, Functional, oral 2 g/day, 12 months): 0.4
CDR, mean change in final value at 6-12 months compared to baseline (early-onset AD patients; [2]): 1.9
CGI-C, mean change in final value at 6-12 months compared to baseline (early-onset AD patients; [2]): 4.5
CGI-S, mean change in final value at 6-12 months compared to baseline (early-onset AD patients; [2]): 0.3
ADAS-Cog, mean change in final value at 6-12 months compared to baseline (early-onset AD patients; [3]): 4.7
MMSE, mean change in final value at 6-12 months compared to baseline (early-onset AD patients; [3]): -2.1
BDS, mean change in final value at 6-12 months compared to baseline (early-onset AD patients; [4]): 1.2
CGI-C, mean change in final value at 6-12 months compared to baseline (early-onset AD patients; [4]): 4.4
CGI-S, mean change in final value at 6-12 months compared to baseline (early-onset AD patients; [4]): 0.0
MMSE, mean change in final value at 6-12 months compared to baseline (early-onset AD patients; the 5 studies of 6 months, Cognitive, oral): -0.7
CGI-C, mean change in final value at 6-12 months compared to baseline (early-onset AD patients; [5]): 4.3
CGI-S, mean change in final value at 6-12 months compared to baseline (early-onset AD patients; [5]): 0.2
toxicity [1]: substantial non-toxicity
